Data from patent US5438135A, “Water-soluble tetraazaporphins and fluorochrome for labeling” (Hitachi Chemical Company, priority 1991, dated 1995).
Read-outs that look alike come from different tables or passages of the source.

How the values were obtained:
[1] = Measurement of fluorescence quantum yield (relative quantum yield method); type: physicochemical; settings: Methanol
Description: For the tetraazaporphins obtained in Examples 1 to 11 and tetraaxzaporphins of this invention obtained in the same manner as in Examples 1 to 11, fluorescence quantum yield was measured according to the method for measuring relative quantum yield described in a reference [J. Photochem. Photobiol, A. Chemistry, vol. 45, p. 117-121 (1988)] using 1,1',3,3,3',3'-hexamethylindotricarbocyanine perchlorate or oxazine-720 as a standard substance in the near infrared region. As is clear from Tables 10 to 12, all of the fluorochromes for labeling of this invention show a sufficient fluorescence quantum yield.

[2] = test system: DNA having a known base sequence; assay: Analysis of the base sequence of DNA (Sanger reaction with labeled primers, DNA sequencer equipped with a semiconductor laser); settings: Triton X-100; semiconductor laser 680 nm
Description: A DNA having a known base sequence was used as a sample. Sanger reaction was carried out for the 4 kinds of bases using each of the labeled primers synthesized in Examples 19 to 25 or primers having a tetraazaporphin attached thereto through a linker synthesized in the same manner as in Examples 19 to 25. The DNA fragments thus obtained were separated by electrophoresis in different lanes for the 4 reaction systems, respectively, and analyzed by means of a DNA sequencer equipped with a semiconductor laser. The reaction systems contained a nonionic surfactant as an addition if necessary.
Each of the phthalocyanines disclosed in International Application Number PCT/US89/03807 was attached to the oligonucleotide primer obtained in Example 18, according to the methods of grafted patents and the methods described in Examples 19 to 25 of this invention. Using each of the phthalocyanine-attached oligonucleotides thus obtained, the base sequence of DNA was analyzed in the same manner as in Example 26.

Human β-globin gene = assay: Detection of β-globin gene in human DNA by PCR with labeled primers, fluorescence intensity of eluate; settings: Triton X-100, laser 680 nm
Description: Human β-globin gene was detected by a gene detection method using the PCR (Polymorase Chain Reaction) method.
Twenty cycles of gene amplification was carried out (the total volume of solution: 100 μl) according to the protocol of Perkin-Elmer-Cetus Corporation by using human placental DNA (1 μg), each of the labeled primers, i.e., illustrative compound No.-[…], synthesized in the manner described above (300 ng), HO-[…] (300 ng), a nonionic surfactant, and TaqDNA polymerase (Perkin-Elmer-Cetus Corporation).
Human placental DNA (1 μg), the same illustrative compound No.-[…] as in sample 1 (300 ng), HO-[…] (300 ng) and a nonionic surfactant were added to a reaction solution containing no TaqDNA polymerase which had been prepared according to the protocol of Perkin-Elmer-Cetus Corporation (the total volume of the solution: 100 μl). […]
After washing with buffer solution A (500 μl) and buffer solution A containing 5% ethanol (500 μl), elution was carried out using buffer solution A containing 10% ethanol (500 μl). The pH of the eluate was adjusted to about 8, and fluorescence intensity was measured by means of a photodiode array by using a semiconductor laser as an exciting light source. […]

[3] = test system: anti-morphine monoclonal antibody; type: binding
Description: For morphine, aminomorphine and the above-mentioned fluorochrome-labeled morphines, relative immuno-affinity for anti-morphine monoclonal antibody was measured using a competitive reaction in which they competed with tritium-labeled morphine.

Question: Which Fluorescence quantum yield ([1]; excitation wavelength 700 nm) does the source give for “sodium bis(tributylsiloxy)silicon-tetraphenylthionaphthalocyaninesulfonate [Illustrative compound No. 6]” here?
Answer: 0.30

Question: With “sodium bis(tributylsiloxy)silicon-tetraphenylthioquinolocyanineoctacarboxylate [Illustrative compound No. 21]” as the compound, how does the Fluorescence quantum yield ([1]; excitation wavelength 650 nm) read?
Answer: 0.52

Question: Which Fluorescence quantum yield ([1]; excitation wavelength 700 nm) does the source give for “sodium bis(trihydroxyneopentoxy)silicon-tetraphenylthionaphthalocyanineoctacarboxylate [Illustrative compound No. 11]” here?
Answer: 0.34

Question: Which “Number of bases of DNA” value [2] does the source give for “Tetraazaporphin-labeled primer 62: oligonucleotide primer 5'-GTTTCCCAGTCACGAC-3' labeled with illustrative compound No. 62 (labeled with tetraazaporphin compound No. 62, position not given here)” here?
Answer: 350

Question: And the Precision [2]?
Answer: 99.7%

Question: What about the “Relative intensity Sample 1” value (Human β-globin gene; Sample 1 (with TaqDNA polymerase, 20 cycles)) of the same compound?
Answer: 6

Question: And the “Relative intensity Sample 2” value (Human β-globin gene; Sample 2 (no TaqDNA polymerase))?
Answer: 134

Question: With “3-(4-aminobutyl)morphine [Aminomorphine]” as the compound, how does the Relative affinity [3] read?
Answer: 1

Question: With “sodium bis(tributylsiloxy)silicon-tetraphenylthionaphthalocyanine octacarboxylate [Illustrative compound No. 1]” as the compound, how does the Fluorescence quantum yield ([1]; excitation wavelength 700 nm) read?
Answer: 0.33

Question: For CN1CC[C@]23c4c5ccc(O)c4O[C@H]2[C@@H](O)C=C[C@H]3[C@H]1C5 [Morphine], which Relative affinity ([3]; relative to morphine, competitive reaction with tritium-labeled morphine) is on record?
Answer: 1

Question: With “sodium bis(tripropylsiloxy)silicon-tetraethylthionaphthalocyaninetetracarboxylate [Illustrative compound No. 16]” as the compound, how does the Fluorescence quantum yield ([1]; excitation wavelength 700 nm) read?
Answer: 0.32
